Source: patent publication US20180028436A1, “TOPICAL FORMULATION OF HOPS EXTRACT” (priority 2016, published 2018)

Test system: fibroblast cells of L929 cell line
Experiment: MTT cytotoxicity assay on fibroblast cells
Assay type: cell-based
From the text: In this example, biocompatibility and toxicity of the topical formulation were studied. At first, cytotoxicity of the hops extract, hops nanoparticles (which were produced according to EXAMPLE 1), and β-cyclodextrin as the carrier were investigated as follows. The cultured fibroblast cells of L929 cell line were exposed to the hops extract, hops nanoparticles, and β-cyclodextrin in three test groups with different concentrations. Three test groups and the control group were studied in a 3-(4,5-dimethylthiazol-2-yl)-2,5-diphenyltetra-zolium bromide (MTT) assay using dimethyl thiazolyl diphenyl tetrazolium salt for evaluating the cell toxicity. FIG. 6A illustrates a MTT plot of the fibroblast cells after about 24 hours of exposing to the hops nanoparticles. Higher absorbance of the MTT dye indicates higher cellular proliferation.

SMILES: OC[C@H]1O[C@@H]2O[C@H]3[C@H](O)[C@@H](O)[C@@H](O[C@H]4[C@H](O)[C@@H](O)[C@@H](O[C@H]5[C@H](O)[C@@H](O)[C@@H](O[C@H]6[C@H](O)[C@@H](O)[C@@H](O[C@H]7[C@H](O)[C@@H](O)[C@@H](O[C@H]8[C@H](O)[C@@H](O)[C@@H](O[C@H]1[C@H](O)[C@H]2O)O[C@@H]8CO)O[C@@H]7CO)O[C@@H]6CO)O[C@@H]5CO)O[C@@H]4CO)O[C@@H]3CO [β-cyclodextrin]
- IC50 Value 24 hours (L929 fibroblast cells, MTT, 24 hours): >6000 µg/mL
- IC50 Value 72 hours (L929 fibroblast cells, MTT, 72 hours): >6000 µg/mL
- cytotoxicity effect (conclusion from IC50 values of TABLE 3): no cytotoxicity effect
